{"source": "patent US11292770B2", "about": "“Pyridazinone herbicides” (FMC Corporation, priority 2017, dated 2022)", "format_in_all_cases": "in vivo", "key": {"[1]": {"tested_on": "barnyardgrass (Echinochloa crus-galli)", "experiment": "Test A preemergence, barnyardgrass", "conditions": "0 to 100 scale", "from_the_text": "(§1) Seeds of plant species selected from barnyardgrass (Echinochloa crus-galli), kochia (Kochia scoparia), ragweed (common ragweed, Ambrosia elation), ryegrass, Italian (Italian ryegrass, Lolium multiflorum), foxtail, green (green foxtail, Setaria viridis), and pigweed (Amaranthus retroflexus) were planted into a blend of loam soil and sand and treated preemergence with a directed soil spray using test chemicals formulated in a non-phytotoxic solvent mixture which included a surfactant. At the same time, plants selected from these weed species and also wheat (Triticum aestivum), corn (Zea mays), blackgrass (Alopecurus myosuroides), and galium (catchweed bedstraw, Galium aparine) were planted in pots containing the same blend of loam soil and sand and treated with postemergence applications of test chemicals formulated in the same manner Plants ranged in height from 2 to 10 cm and were in the one- to two-leaf stage for the postemergence treatment. Treated plants and untreated controls were maintained in a greenhouse for approximately 10 d, after which time all treated plants were compared to untreated controls and visually evaluated for injury. Plant response ratings, summarized in Table A, are based on a 0 to 100 scale where 0 is no effect and 100 is complete control. A dash (—) response means no test result."}, "[2]": {"tested_on": "kochia (Kochia scoparia)", "experiment": "Test A preemergence, kochia", "conditions": "0 to 100 scale", "from_the_text": "as §1"}, "[3]": {"tested_on": "ragweed (common ragweed, Ambrosia elation)", "experiment": "Test A preemergence, ragweed", "conditions": "0 to 100 scale", "from_the_text": "as §1"}, "[4]": {"tested_on": "ryegrass, Italian (Italian ryegrass, Lolium multiflorum)", "experiment": "Test A preemergence, ryegrass, Italian", "conditions": "0 to 100 scale", "from_the_text": "as §1"}, "[5]": {"tested_on": "pigweed (Amaranthus retroflexus)", "experiment": "Test A preemergence, pigweed", "conditions": "0 to 100 scale", "from_the_text": "as §1"}, "[6]": {"tested_on": "barnyardgrass (Echinochloa crus-galli)", "experiment": "Test A postemergence, barnyardgrass", "conditions": "0 to 100 scale", "from_the_text": "as §1"}, "[7]": {"tested_on": "kochia (Kochia scoparia)", "experiment": "Test A postemergence, kochia", "conditions": "0 to 100 scale", "from_the_text": "as §1"}, "[8]": {"tested_on": "ragweed (common ragweed, Ambrosia elation)", "experiment": "Test A postemergence, ragweed", "conditions": "0 to 100 scale", "from_the_text": "as §1"}, "[9]": {"tested_on": "ryegrass, Italian (Italian ryegrass, Lolium multiflorum)", "experiment": "Test A postemergence, ryegrass, Italian", "conditions": "0 to 100 scale", "from_the_text": "as §1"}, "[10]": {"tested_on": "pigweed (Amaranthus retroflexus)", "experiment": "Test A postemergence, pigweed", "conditions": "0 to 100 scale", "from_the_text": "as §1"}, "[11]": {"tested_on": "wheat (Triticum aestivum)", "experiment": "Test A postemergence, wheat", "conditions": "0 to 100 scale", "from_the_text": "as §1"}, "[12]": {"tested_on": "corn (Zea mays)", "experiment": "Test A postemergence, corn", "conditions": "0 to 100 scale", "from_the_text": "as §1"}, "[13]": {"tested_on": "blackgrass (Alopecurus myosuroides)", "experiment": "Test A postemergence, blackgrass", "conditions": "0 to 100 scale", "from_the_text": "as §1"}, "[14]": {"tested_on": "galium (catchweed bedstraw, Galium aparine)", "experiment": "Test A postemergence, galium", "conditions": "0 to 100 scale", "from_the_text": "as §1"}, "[15]": {"tested_on": "rice (Oryza sativa)", "experiment": "Test B flooded paddy test, rice", "conditions": "Flood, 250 g ai/ha; scale of 0 to 100", "protocol": "(§2) Plant species in the flooded paddy test selected from rice (Oryza sativa), sedge, umbrella (small-flower umbrella sedge, Cyperus difformis), ducksalad (Heteranthera limosa), and barnyardgrass (Echinochloa crus-galli) were grown to the 2-leaf stage for testing. At the time of treatment, test pots were flooded to 3 cm above the soil surface, treated by application of test compounds directly to the paddy water, and then maintained at that water depth for the duration of the test. Treated plants and controls were maintained in a greenhouse for 13 to 15 d, after which time all species were compared to controls and visually evaluated. Plant response ratings, summarized in Table B, are based on a scale of 0 to 100 where 0 is no effect and 100 is complete control. A dash (—) response means no test result."}, "[16]": {"tested_on": "sedge, umbrella (small-flower umbrella sedge, Cyperus difformis)", "experiment": "Test B flooded paddy test, sedge, umbrella", "conditions": "Flood, 250 g ai/ha; scale of 0 to 100", "protocol": "as §2"}, "[17]": {"tested_on": "ducksalad (Heteranthera limosa)", "experiment": "Test B flooded paddy test, ducksalad", "conditions": "Flood, 250 g ai/ha; scale of 0 to 100", "protocol": "as §2"}, "[18]": {"tested_on": "barnyardgrass (Echinochloa crus-galli)", "experiment": "Test B flooded paddy test, barnyardgrass", "conditions": "Flood, 250 g ai/ha; scale of 0 to 100, 0 no effect, 100 complete control", "protocol": "as §2"}, "[19]": {"tested_on": "Foxtail, Giant", "experiment": "Test A postemergence, foxtail, giant", "conditions": "0 to 100 scale"}, "[20]": {"tested_on": "Foxtail, Giant", "experiment": "Test A preemergence, foxtail, giant", "conditions": "0 to 100 scale"}}}
{"compound": "Cc1nn(C)c(=O)c(-c2c3ccccc3cc3ccccc23)c1O", "note": "[Compound 8]", "values": [{"measurement": "Plant response rating, Barnyardgrass", "setting": "[1]; 31 g ai/ha", "result": 0}, {"measurement": "Plant response rating, Barnyardgrass", "setting": "[1]; 125 g ai/ha", "result": 10}, {"measurement": "Plant response rating, Kochia", "setting": "[2]; 31 g ai/ha", "result": 0}, {"measurement": "Plant response rating, Kochia", "setting": "[2]; 125 g ai/ha", "result": 0}, {"measurement": "Plant response rating, Ragweed", "setting": "[3]; 31 g ai/ha", "result": 40}, {"measurement": "Plant response rating, Ragweed", "setting": "[3]; 125 g ai/ha", "result": 90}, {"measurement": "Plant response rating, Ryegrass, Italian", "setting": "[4]; 31 g ai/ha", "result": 10}, {"measurement": "Plant response rating, Ryegrass, Italian", "setting": "[4]; 125 g ai/ha", "result": 50}, {"measurement": "Plant response rating, Pigweed", "setting": "[5]; 31 g ai/ha", "result": 100}, {"measurement": "Plant response rating, Pigweed", "setting": "[5]; 125 g ai/ha", "result": 100}, {"measurement": "Plant response rating, Barnyardgrass", "setting": "[6]; 31 g ai/ha", "result": 10}, {"measurement": "Plant response rating, Barnyardgrass", "setting": "[6]; 125 g ai/ha, 0 no effect, 100 complete control", "result": 50}, {"measurement": "Plant response rating, Kochia", "setting": "[7]; 31 g ai/ha", "result": 0}, {"measurement": "Plant response rating, Kochia", "setting": "[7]; 125 g ai/ha", "result": 10}, {"measurement": "Plant response rating, Ragweed", "setting": "[8]; 31 g ai/ha", "result": 90}, {"measurement": "Plant response rating, Ragweed", "setting": "[8]; 125 g ai/ha", "result": 90}, {"measurement": "Plant response rating, Ryegrass, Italian", "setting": "[9]; 31 g ai/ha", "result": 90}, {"measurement": "Plant response rating, Ryegrass, Italian", "setting": "[9]; 125 g ai/ha", "result": 100}, {"measurement": "Plant response rating, Pigweed", "setting": "[10]; 31 g ai/ha", "result": 90}, {"measurement": "Plant response rating, Pigweed", "setting": "[10]; 125 g ai/ha", "result": 100}, {"measurement": "Plant response rating, Wheat", "setting": "[11]; 31 g ai/ha", "result": 0}, {"measurement": "Plant response rating, Wheat", "setting": "[11]; 125 g ai/ha", "result": 0}, {"measurement": "Plant response rating, Corn", "setting": "[12]; 31 g ai/ha", "result": 10}, {"measurement": "Plant response rating, Corn", "setting": "[12]; 125 g ai/ha", "result": 10}, {"measurement": "Plant response rating, Blackgrass", "setting": "[13]; 31 g ai/ha", "result": 0}, {"measurement": "Plant response rating, Blackgrass", "setting": "[13]; 125 g ai/ha", "result": 30}, {"measurement": "Plant response rating, Galium", "setting": "[14]; 31 g ai/ha", "result": 80}, {"measurement": "Plant response rating, Galium", "setting": "[14]; 125 g ai/ha", "result": 90}, {"measurement": "Plant response rating, Rice", "setting": "[15]", "result": 15}, {"measurement": "Plant response rating, Sedge, Umbrella", "setting": "[16]", "result": 90}, {"measurement": "Plant response rating, Ducksalad", "setting": "[17]", "result": 90}, {"measurement": "Plant response rating, Barnyardgrass", "setting": "[18]", "result": 15}, {"measurement": "Plant response rating, Foxtail, Giant", "setting": "[19]; 31 g ai/ha", "result": 10}, {"measurement": "Plant response rating, Foxtail, Giant", "setting": "[19]; 125 g ai/ha", "result": 60}, {"measurement": "Plant response rating, Foxtail, Giant", "setting": "[20]; 31 g ai/ha", "result": 0}, {"measurement": "Plant response rating, Foxtail, Giant", "setting": "[20]; 125 g ai/ha", "result": 10}]}
